From US12528777B2, “Quinazolinones derivatives for treatment of non-alcoholic fatty liver disease, preparation and use thereof” (Council of Scientific and Industrial Research, priority 2020, dated 2026)
“Also recorded” adds a separate entry of the source.

Key:
ATGL = assay: Western blot of ATGL level in HepG2 cells; assay type: cell-based; set-up: key to Increase in ATGL level: + = slight or in insignificant; ++ = Moderate; +++ and ++++ = active; +++ and ++++ = active; +++++ = very active; conditions: western blot; for Increase in ATGL level: HepG2 cells, score; for ATGL level in HepG2 cells: 24 hours, 10 μM screening or 50 nM-5 μM dose dependent
Method: (§1) To select the compounds capable of inhibiting the ubiquitination of ATGL by COP1 by targeting the VP motif, confocal microscopy was performed with the provided molecules. If the compound was effective in inhibiting the interaction, there would be a reduction in the number of fat droplets in the cells after treatment. […] With this rationale in mind, HepG2 cells were induced to accumulate lipid droplets after treatment with 250 µM of oleate and 10 μM of the specific compounds were added. The potential of the compounds to bring about a reduction in the number of fat droplets was then checked by comparison with oleate induced cells by counting number of droplets of approximately 20 cells from each treatment and calculating the average number of lipid droplets of each cell. The selected compounds were then subjected to dose dependent treatments and the ones which could maintain its potency to reduce fat droplets at lower doses were then selected for western blot analysis. The compound which could reduce the number of fat droplets in the cells are expected to raise the levels of ATGL since they are likely to deter COP1 from ubiquitinating ATGL. This increase will be visible only in the protein level and gene expression is likely to remain unchanged since ubiquitination is a […] modification. Thus, western blot was performed to check ATGL levels in the cells with the selected molecules.
HepG2 cells were treated with the compounds 9, 10, 11, 17, 18, 23, 24, 115, 123, 127, 139,107, 171, 179, 73, 187, 211, 215, 219, 223, 232, 238, 241, 244, 258, 299, 308, and 333a, (10 μM for initial screening and 50 nM, 100 nM, 200 nM, 500 nM, 1 μM and 5 μM for dose dependent assays) for 24 hours. After removing media from the cells, the wells were washed with 1×PBS twice to remove any remnant media. Cells were then lysed in lysis buffer containing 50 mM Tris-HCl (pH 7.4), 100 mM NaCl, 1 mM EDTA, 1 mM EGTA, 1% Triton X-100 and protease inhibitor cocktail (Millipore, Billierica, MA, USA). Following centrifugation at 20,000 g for 20 minutes, the protein solution was extracted from the cells. Protein was estimated using Bradford assay. Bradford's reagent (BioRad) was diluted in 1:4 ratio in double distilled water. 2 μl of protein sample was added to 100 μl of the reagent and absorbance was measured at 595 nm. […] of protein was diluted in lysis buffer. 1× loading buffer diluted from 5× stock containing 250 mM Tris-HCl (pH 6.8), 10% SDS, 50% glycerol, 0.1% bromophenol Blue and 10% β-mercaptoethanol was added. The protein samples were then heated at 95° C. for 10 minutes, cooled and centrifuged at 12,000 g for 2 minutes prior to loading.
For western blotting, the proteins were resolved in 10% SDS PAGE (discontinuous buffer system). 1× running buffer containing SDS, Tris Base and Glycine was used to run the gel at 80V for approximately 2 hours. Transfer was done using PVDF membrane (Millipore) having pore size of 0.45 μm. 1× transfer buffer containing Tris-Base, Glycine and 20% methanol was used for wet transfer. Transfer was done at 90V for 3 hours. Following transfer, the PVDF membrane containing the proteins were washed in 1×PBST comprising of 1×PBS and 1% Tween 20 (Sigma Aldrich). The membrane was then incubated for 1 hour at room temperature in 5% skim milk powder to block the non-specific sites. Following multiple washes with 1×PBST to wash away any remaining blocking buffer, the required primary antibody (COP1 [Bethyl Laboraties], ATGL [Cell Signalling Technology] or Actin[Cell Signalling Technology]) prepared with 1×PBST, 1% Bovine Serum Albumin and 0.04% Sodium Azide was added to the membrane and incubated overnight at 4° C. The next day, the membrane was again washed multiple times with 1×PBST to remove any unbound primary antibody. The membrane was then incubated with goat anti-rabbit secondary antibody (Genei) for 1 hour at room temperature and washed again for multiple times with 1×PBST. […]

HepG2 cells = assay: Confocal microscopy: lipid droplets in oleate induced HepG2 cells; assay type: cell-based; set-up: key to Reduction in Lipid Droplets: + = slight or in insignificant; ++ = Moderate; +++ and ++++ = active; +++ and ++++ = active; +++++ = very active; conditions: for Number of lipid droplets: HepG2 cells, 250 μM oleate induction; for Reduction in Lipid Droplets: oleate induced HepG2 cells, score
Method: as §1
HepG2 cells were plated in confocal dishes (SPL, Genetix Biotech Asia Pvt. Ltd.). The cells were allowed to adhere and divide for 16 hours. 10 μM for initial screening and 10 nM, 20 nM, 50 nM, 100 nM, 200 nM, 500 nM, 1 μM and 5 μM for dose dependent assays of the compounds 9 and 107 were dissolved in DMSO and added to the cells. 250 μM of oleate was used for induction. BSA (Sigma Aldrich) was used as a negative control. Post 24 hours of treatment, media was decanted from the cells and washed with 1×PBS solution to remove any remnant. 200 μl of staining solution containing 200 ng/ml BODIPY (Invitrogen) and 25 µg/ml HOECKST342 (Invitrogen) were added to the cells and incubated at 37° C. for 30 minutes under dark conditions. Cells were washed 3 times with 1×PBS to remove excess stain. FLUOVIEW FV10i (Olympus) was used to visualise the cells.

| Structure (SMILES) | Increase in ATGL level (ATGL) | ATGL level in HepG2 cells (ATGL) | Number of lipid droplets (HepG2 cells) | Reduction in Lipid Droplets (HepG2 cells) |
| --- | --- | --- | --- | --- |
| CC(=O)c1cccc(NC(=O)Nc2ccc3ncn(C4CCN(C)CC4)c(=O)c3c2)c1 [Compound 163, 1-(3-acetylphenyl)-3-(3-(1-methylpiperidin-4-yl)-4-oxo-3,4-dihydroquinazolin-6-yl)urea] | + | some sort of increase in ATGL level | reduction in lipid droplets | ++ |
| COCCn1c(C(C)C)nc2ccc(NC(=O)Nc3cccc(C(C)=O)c3)cc2c1=O [Compound 111, 1-(3-acetylphenyl)-3-(2-isopropyl-3-(2-methoxyethyl)-4-oxo-3,4-dihydroquinazolin-6-yl)urea] | +++ | – | – | ++ |
| CCOC(=O)Cn1cnc2ccc(NC(=O)Nc3ccc(F)c(Cl)c3)cc2c1=O [Compound 83, ethyl 2-(6-(3-(3-chloro-4-fluorophenyl)ureido)-4-oxoquinazolin-3 (4H)-yl)acetate] | + | – | – | + |
| COCCn1cnc2ccc(NC(=O)Nc3cccc(C(=O)N4CCCC4)c3)cc2c1=O [Compound 18, 1-(3-(2-methoxyethyl)-4-oxo-3,4-dihydroquinazolin-6-yl)-3-(3-(pyrrolidine-1-carbonyl)phenyl)urea] | ++++ | increased ATGL level; also recorded: ability to increase ATGL level | – | + |
| COCCn1cnc2ccc(NC(=O)Nc3cccc(N(C)C(C)=O)c3)cc2c1=O [Compound 23, N-(3-(3-(3-(2-methoxyethyl)-4-oxo-3,4-dihydroquinazolin-6-yl)ureido)phenyl)-N-methylacetamide] | ++++ | increased ATGL level | – | ++ |
| COCCCn1cnc2ccc(NC(=O)Nc3cccc(C(C)=O)c3)cc2c1=O [Compound 89, 1-(3-acetylphenyl)-3-(3-(3-methoxypropyl)-4-oxo-3,4-dihydroquinazolin-6-yl)urea] | + | some sort of increase in ATGL level | reduction in lipid droplets | +++ |
| CCOC(=O)c1cccc(NC(=O)Nc2ccc3ncn(CCOC)c(=O)c3c2)c1 [Compound 42, ethyl 3-(3-(3-(2-methoxyethyl)-4-oxo-3,4-dihydroquinazolin-6-yl)ureido)benzoate] | + | – | – | + |
| COCCn1cnc2ccc(NC(=O)Nc3cccc(C(=O)c4ccccc4)c3)cc2c1=O [Compound 14, 1-(3-benzoylphenyl)-3-(3-(2-methoxyethyl)-4-oxo-3,4-dihydroquinazolin-6-yl)urea] | + | – | – | + |
| CCOCCn1cnc2ccc(NC(=O)Nc3cccc(C(C)=O)c3)cc2c1=O [Compound 93, 1-(3-acetylphenyl)-3-(3-(2-ethoxyethyl)-4-oxo-3,4-dihydroquinazolin-6-yl)urea] | ++++ | some sort of increase in ATGL level | reduction in lipid droplets | +++ |
| COCCn1cnc2ccc(NC(=O)Nc3ccccc3OC)cc2c1=O [Compound 41, 1-(3-(2-methoxyethyl)-4-oxo-3,4-dihydroquinazolin-6-yl)-3-(2-methoxyphenyl)urea] | ++++ | – | – | ++ |
| COCCn1cnc2ccc(NC(=O)Nc3cccc(C(C)O)c3)cc2c1=O (centres unmarked) [Compound 11, 1-(3-(1-hydroxyethyl)phenyl)-3-(3-(2-methoxyethyl)-4-oxo-3,4-dihydroquinazolin-6-yl)urea] | + | increased ATGL level | – | + |
| CC(=O)c1cccc(NC(=O)Nc2ccc3ncn(CCN4CCCCC4)c(=O)c3c2)c1 [Compound 147, 1-(3-acetylphenyl)-3-(4-oxo-3-(2-(piperidin-1-yl)ethyl)-3,4-dihydroquinazolin-6-yl)urea] | +++ | some sort of increase in ATGL level | reduction in lipid droplets | ++ |
| CCCCn1cnc2ccc(NC(=O)Nc3cccc(C(C)=O)c3)cc2c1=O [Compound 175, 1-(3-acetylphenyl)-3-(3-butyl-4-oxo-3,4-dihydroquinazolin-6-yl)urea] | + | did not increase ATGL level | reduced lipid droplets | + |
| CC(=O)c1cccc(NC(=O)Nc2ccc3ncn(CCN(C)C)c(=O)c3c2)c1 [Compound 143, 1-(3-acetylphenyl)-3-(3-(2-(dimethylamino)ethyl)-4-oxo-3,4-dihydroquinazolin-6-yl)urea] | ++++ | some sort of increase in ATGL level | reduction in lipid droplets | +++ |
| COCCn1c(-c2ccc(F)cc2)nc2ccc(NC(=O)Nc3cccc(C(C)=O)c3)cc2c1=O [Compound 115, 1-(3-acetylphenyl)-3-(2-(4-fluorophenyl)-3-(2-methoxyethyl)-4-oxo-3,4-dihydroquinazolin-6-yl)urea] | + | – | – | + |
| COCCn1cnc2ccc(NC(=O)Nc3cccc(C(=O)NC(C(=O)OC)C(C)C)c3)cc2c1=O (centres unmarked) [Compound 16, methyl 2-(3-(3-(3-(2-methoxyethyl)-4-oxo-3,4-dihydroquinazolin-6-yl)ureido)benzamido)-3-methylbutanoate] | ++++ | – | – | +++ |
| CC(=O)c1cccc(NC(=O)Nc2ccc3ncn(CCN4CCOCC4)c(=O)c3c2)c1 [Compound 135, 1-(3-acetylphenyl)-3-(3-(2-morpholinoethyl)-4-oxo-3,4-dihydroquinazolin-6-yl)urea] | +++ | some sort of increase in ATGL level | reduction in lipid droplets | ++ |
| COCCn1cnc2cc(NC(=O)Nc3cccc(C(C)=O)c3)ccc2c1=O [Compound 192, 1-(3-acetylphenyl)-3-(3-(2-methoxyethyl)-4-oxo-3,4-dihydroquinazolin-7-yl)urea] | +++ | – | – | ++ |
